The text below walks through data of PMC11898701, “Evaluating Therapeutic Efficacy of the Vascular Disrupting Agent OXi8007 Against Kidney Cancer in Mice” (Cancers, 2025).

Where two headings read alike, the source gives them in different places. Marks after values point to notes of the source that are not given here.

Series [1] in a line: Pharmacokinetic study in Renca-luc tumor-bearing BALB/c mice. It is filed as in vivo, mouse. To be noted: for Tmax: read-out: Tmax (converted). As for the experimental part:
Plasma and tissues were harvested at various time points (20 min to 16 h) from Renca-luc tumor-bearing BALB/c male mice following the administration of OXi8007 IP. Mice treated with 250 mg/kg were sacrificed at 20 min (n = 3), 1 h (n = 4), 2 h (n = 4), 4 h (n = 4), 8 h (n = 4), and 16 h (n = 4). Mice were anesthetized, exsanguinated, the tissues were blotted, and then they were weighed and frozen in liquid nitrogen. Homogenized plasma and tissue samples were extracted with acetonitrile with a bead mill; internal standard (CA4 or tri-labeled ^13C-OXi8006) was added to each sample to reach a final concentration of 10 ppb. Samples were centrifuged twice to remove precipitated proteins (16,260× g for 10 min at 4 °C). Clear supernatant was transferred into MS vials, and formic acid was added to a final concentration of 0.1% for LC-MS analysis. […] Mobile phase A consisted of 0.1% v/v formic acid in water, and mobile phase B was acetonitrile, which was mixed by the binary pump with an elution gradient at a flow rate of 0.6 mL/min. Data were analyzed using Xcalibur 4.6 software based on exact masses, and Phoenix WinNonlin 8.5.0 software was used to determine the pharmacokinetic parameters based on a non-compartmental model.

Series [2] in a line: Blood pressure assessment (CODA system). The format is in vivo, mouse. As to the method:
Blood pressure was measured using a CODA system (Kent Scientific, Torrington, CT, USA) on 5 adult male BALB/c mice. Mice were anesthetized with 2% isoflurane in oxygen at 1 dm^3/min and placed on the CODA IR heating pad with a feedback rectal temperature probe and nosecone to maintain anesthesia. An occlusion cuff and VPR cuff were placed on the tail. The baseline measurement was recorded over 30 min, then OXi8007 (250 mg/kg or 325 mg/kg) was administered IP and the blood pressure measurement resumed for 45 min. As positive and negative controls, hydralazine (1 mg/kg) or saline, respectively, were injected IP.

[3] abbreviates: male, BALB/c, mouse, ip, glucuronide metabolite, brain, after OXi8007 250 mg/kg.
Where [4] appears, read: male, BALB/c, mouse, ip, glucuronide metabolite, heart, after OXi8007 250 mg/kg.
[5] abbreviates: male, BALB/c, mouse, ip, glucuronide metabolite, left kidney, after OXi8007 250 mg/kg.
Where [6] appears, read: male, BALB/c, mouse, ip, glucuronide metabolite, liver, after OXi8007 250 mg/kg.
Setting [7] is: male, BALB/c, mouse, ip, glucuronide metabolite, lungs, after OXi8007 250 mg/kg.
The mark [8] stands for this setting: male, BALB/c, mouse, ip, glucuronide metabolite, plasma, after OXi8007 250 mg/kg.
The mark [9] stands for this setting: male, BALB/c, mouse, ip, glucuronide metabolite, spleen, after OXi8007 250 mg/kg.
Setting [10] is: male, BALB/c, mouse, ip, glucuronide metabolite, tumor, after OXi8007 250 mg/kg.
The mark [11] stands for this setting: male, BALB/c, mouse, in vivo, ip, 250 mg/kg, brain, after OXi8007 250 mg/kg IP.
Setting [12] is: male, BALB/c, mouse, in vivo, ip, 250 mg/kg, heart, after OXi8007 250 mg/kg IP.
Setting [13] is: male, BALB/c, mouse, in vivo, ip, 250 mg/kg, left kidney, after OXi8007 250 mg/kg IP.
Setting [14] is: male, BALB/c, mouse, in vivo, ip, 250 mg/kg, liver, after OXi8007 250 mg/kg IP.
[15] abbreviates: male, BALB/c, mouse, in vivo, ip, 250 mg/kg, lungs, after OXi8007 250 mg/kg IP.
Where [16] appears, read: male, BALB/c, mouse, in vivo, ip, 250 mg/kg, plasma, after OXi8007 250 mg/kg IP.
Setting [17] is: male, BALB/c, mouse, in vivo, ip, 250 mg/kg, spleen, after OXi8007 250 mg/kg IP.
Where [18] appears, read: male, BALB/c, mouse, in vivo, ip, 250 mg/kg, tumor and right kidney, after OXi8007 250 mg/kg IP.

By half-life is commonly meant the time in which the quantity being followed falls by half. Regarding `COc1ccc2c(C(=O)c3cc(OC)c(OC)c(OC)c3)c(-c3ccc(OC)c(O[C@@H]4O[C@H](C(=O)O)[C@@H](O)[C@H](O)[C@H]4O)c3)[nH]c2c1` [OXi8006 Glucuronide], the Cmax is recorded as 0.95 counts × 10^−6 in series [1] (glucuronide metabolite, brain, counts per tissue sample (40 mg), after OXi8007 250 mg/kg); 9.8 counts × 10^−6 in series [1] (glucuronide metabolite, heart, counts per tissue sample (40 mg), after OXi8007 250 mg/kg); 87.2 counts × 10^−6 in series [1] (glucuronide metabolite, left kidney, counts per tissue sample (40 mg), after OXi8007 250 mg/kg); 28.23 counts × 10^−6 in series [1] (glucuronide metabolite, liver, counts per tissue sample (40 mg), after OXi8007 250 mg/kg); 20.87 counts × 10^−6 in series [1] (glucuronide metabolite, lungs, counts per tissue sample (40 mg), after OXi8007 250 mg/kg); 1266 counts × 10^−6 in series [1] (glucuronide metabolite, plasma, counts per mL, no precise calibration, after OXi8007 250 mg/kg). Further, the Cmax in series [1] (glucuronide metabolite, spleen, counts per tissue sample (40 mg), after OXi8007 250 mg/kg) is reported as 6.33 counts × 10^−6; in series [1] (glucuronide metabolite, tumor, counts per tissue sample (40 mg), after OXi8007 250 mg/kg), 11.65 counts × 10^−6. The AUC in series [1] (glucuronide metabolite, brain, after OXi8007 250 mg/kg) stood at 4.13 h × counts × 10^−6; in series [1] (glucuronide metabolite, heart, after OXi8007 250 mg/kg), 24.52 h × counts × 10^−6; in series [1] (glucuronide metabolite, left kidney, after OXi8007 250 mg/kg) it was 180.6 h × counts × 10^−6; in series [1] (glucuronide metabolite, liver, after OXi8007 250 mg/kg) it was 128.7 h × counts × 10^−6; in series [1] (glucuronide metabolite, lungs, after OXi8007 250 mg/kg), 69.33 h × counts × 10^−6; in series [1] (glucuronide metabolite, plasma, no precise calibration, after OXi8007 250 mg/kg) it was 3490 h × counts × 10^−6. Further, the AUC amounted to 18.39 h × counts × 10^−6 in series [1] (glucuronide metabolite, spleen, after OXi8007 250 mg/kg) and 118.22 h × counts × 10^−6 in series [1] (glucuronide metabolite, tumor, after OXi8007 250 mg/kg). The half-life in series [1] (setting [3]) was 69 min; in series [1] (setting [4]), 96.6 min; in series [1] (setting [5]), 225 min; in series [1] (setting [6]), 202 min; in series [1] (setting [7]), 123 min; in series [1] (setting [8]), 117 min. For the same molecule, the figures for the half-life in series [1] (setting [9]) and in series [1] (setting [10]) were 132 min and 352 min, respectively. In addition, the Tmax in series [1] (setting [3]), in series [1] (setting [4]), in series [1] (setting [5]), in series [1] (setting [6]), in series [1] (setting [7]) and in series [1] (setting [8]) was 1 h in each case. Further, the Tmax was 1 h in series [1] (setting [9]) and 4 h in series [1] (setting [10]).
On to `COc1ccc2c(C(=O)c3cc(OC)c(OC)c(OC)c3)c(-c3ccc(OC)c(O)c3)[nH]c2c1` [OXi8006], for which the AUC was 0.54 ng·h/mg in series [1] (brain, after OXi8007 250 mg/kg IP); 9.04 ng·h/mg in series [1] (heart, after OXi8007 250 mg/kg IP); 8.72 ng·h/mg in series [1] (left kidney, after OXi8007 250 mg/kg IP); 18.19 ng·h/mg in series [1] (liver, after OXi8007 250 mg/kg IP); 9.45 ng·h/mg in series [1] (lungs, after OXi8007 250 mg/kg IP); 47 ^# h × ng/µL in series [1] (plasma, after OXi8007 250 mg/kg IP, zero to last quantifiable concentration). Moreover, the AUC in series [1] (spleen, after OXi8007 250 mg/kg IP) amounted to 9.88 ng·h/mg; in series [1] (tumor and right kidney, after OXi8007 250 mg/kg IP) it was 10.24 ng·h/mg. Moreover, the half-life is 103 min in series [1] (setting [11]); 121 min in series [1] (setting [12]); 104 min in series [1] (setting [13]); 135 min in series [1] (setting [14]); 154 min in series [1] (setting [15]); 119 min in series [1] (setting [16]). Besides, the half-life in series [1] (male, BALB/c, mouse, in vivo, ip, 250 mg/kg, plasma, after OXi8007 250 mg/kg IP, Renca-luc tumor-bearing BALB/c mice) was 119 min; in series [1] (setting [17]) it was 103 min; in series [1] (setting [18]), 254 min. Further, the Cmax in series [1] (male, BALB/c, mouse, in vivo, ip, 250 mg/kg, brain, after OXi8007 250 mg/kg IP, read-out: Cmax) was determined as 220 ng/g; in series [1] (male, BALB/c, mouse, in vivo, ip, 250 mg/kg, heart, after OXi8007 250 mg/kg IP, read-out: Cmax), 5310 ng/g; in series [1] (male, BALB/c, mouse, in vivo, ip, 250 mg/kg, left kidney, after OXi8007 250 mg/kg IP, read-out: Cmax), 5860 ng/g; in series [1] (male, BALB/c, mouse, in vivo, ip, 250 mg/kg, liver, after OXi8007 250 mg/kg IP, read-out: Cmax) it was 9160 ng/g; in series [1] (male, BALB/c, mouse, in vivo, ip, 250 mg/kg, lungs, after OXi8007 250 mg/kg IP, read-out: Cmax), 4180 ng/g; in series [1] (male, BALB/c, mouse, in vivo, ip, 250 mg/kg, plasma, after OXi8007 250 mg/kg IP, read-out: Cmax) it was 29000 ng/mL. The Cmax in series [1] (male, BALB/c, mouse, in vivo, ip, 250 mg/kg, spleen, after OXi8007 250 mg/kg IP, read-out: Cmax) worked out at 4450 ng/g; in series [1] (male, BALB/c, mouse, in vivo, ip, 250 mg/kg, tumor and right kidney, after OXi8007 250 mg/kg IP, read-out: Cmax) it was 2390 ng/g. Moreover, the Tmax in series [1] (setting [11]), in series [1] (setting [12]), in series [1] (setting [13]), in series [1] (setting [14]), in series [1] (setting [15]) and in series [1] (setting [16]) was 0.333 h in each case. The Tmax is 0.333 h in series [1] (setting [17]) and 1 h in series [1] (setting [18]).
On to `NNc1nncc2ccccc12` [hydralazine, reference compound], for which the “Hypotension (Δ BP)” value in series [2] (1 mg/kg) was ~ 35 mmHg. Further, in series [2] (1 mg/kg IP), the “Drop in diastolic blood pressure (Δ)” value is 31 mmHg, the “Drop in mean blood pressure (Δ)” value stood at 34 mmHg and the “Drop in systolic blood pressure (Δ)” value was 40 mmHg. The “Drop in blood pressure” value in series [2] (1 mg/kg IP, positive control) is recorded as “about 30%”.
